Test results published in patent publication US12077503B2, “Substituted cyclic amides and their use as herbicides” (FMC CORPORATION, priority 2015, dated 2024).
Where two headings read alike, the source gives them in different places.

Key:
Assay type in all cases: in vivo
[1] = system: Galium (catchweed bedstraw, Galium aparine); experiment: Test A postemergence; settings: Galium, post-emergence, 240 h; for pest or weed control at 125 g/ha: 125 g ai/ha, postemergence
Method in brief: (§1)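 Greenhouse, ~10 d after spray; visual injury vs untreated controls, 0 = no effect, 100 = complete control. Preemergence: directed soil spray over planted seeds. Postemergence: plants 2–10 cm, 1–2 leaf stage. Loam/sand blend. Compound in non-phytotoxic solvent with surfactant.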

Kochia (Kochia scoparia) = experiment: Test A postemergence; settings: Bassia scoparia, post-emergence, 240 h; for pest or weed control at 125 g/ha: 125 g ai/ha, postemergence
Method in brief: as §1

[2] = system: barnyardgrass (Echinochloa crus-galli); experiment: Test A postemergence; settings: Echinochloa crus-galli, post-emergence, 240 h; for pest or weed control at 125 g/ha: 125 g ai/ha, postemergence
Method in brief: as §1

[3] = system: blackgrass (Alopecurus myosuroides); experiment: Test A postemergence; settings: Alopecurus myosuroides, post-emergence, 240 h; for pest or weed control at 125 g/ha: 125 g ai/ha, postemergence
Method in brief: as §1

corn (Zea mays) = experiment: Test A postemergence; settings: Zea mays, post-emergence, 240 h; for Corn plant response rating (crop injury, 0 = no effect, 100 = complete kill) at 125 g/ha: visual injury after approximately 10 d
Method in brief: as §1

[4] = system: giant foxtail (Setaria faberii); experiment: Test A postemergence; settings: Setaria faberi, post-emergence, 240 h; for pest or weed control at 125 g/ha: 125 g ai/ha, postemergence
Method in brief: as §1

[5] = system: pigweed (Amaranthus retroflexus); experiment: Test A postemergence; settings: Amaranthus retroflexus, post-emergence, 240 h; for pest or weed control at 125 g/ha: 125 g ai/ha, postemergence
Method in brief: as §1

[6] = system: ragweed (common ragweed, Ambrosia elatior); experiment: Test A postemergence; settings: Ambrosia artemisiifolia, post-emergence, 240 h; for pest or weed control at 125 g/ha: 125 g ai/ha, postemergence
Method in brief: as §1

[7] = system: ryegrass, Italian (Italian ryegrass, Lolium multiflorum); experiment: Test A postemergence; settings: Lolium multiflorum, post-emergence, 240 h; for pest or weed control at 125 g/ha: 125 g ai/ha, postemergence
Method in brief: as §1

[8] = system: wheat (Triticum aestivum); experiment: Test A postemergence; settings: Triticum aestivum, post-emergence, 240 h; for plant injury at 125 g/ha: 125 g ai/ha, postemergence
Method in brief: as §1

[9] = system: barnyardgrass (Echinochloa crus-galli); experiment: Test B flooded paddy test; settings: Echinochloa crus-galli, Flood, 250 g ai/ha, read-out: Barnyardgrass plant response rating
Method in brief: (§2)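 Evaluation by eye, against controls, occurred 13–15 d post-treatment in a greenhouse, using a 0 (no effect) to 100 (complete control) scale. Application was into the paddy water, 3 cm deep over the soil, on 2-leaf plants.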

[10] = system: ducksalad (Heteranthera limosa); experiment: Test B flooded paddy test; settings: Heteranthera limosa, Flood, 250 g ai/ha, read-out: Ducksalad plant response rating
Method in brief: as §2

rice (Oryra sativa) = experiment: Test B flooded paddy test; settings: Oryza sativa, Flood, 250 g ai/ha, read-out: Rice plant response rating
Method in brief: as §2

[11] = system: sedge, umbrella (small-flower umbrella sedge, Cyperus difformis); experiment: Test B flooded paddy test; settings: Cyperus difformis, Flood, 250 g ai/ha, read-out: Sedge, Umbrella plant response rating
Method in brief: as §2

[12] = visual injury after approximately 10 d, 0 to 100 scale (0 no effect, 100 complete control), read-out: Plant response rating, Galium
[13] = visual injury after approximately 10 d, 0 to 100 scale (0 no effect, 100 complete control), read-out: Plant response rating, Kochia
[14] = visual injury after approximately 10 d, 0 to 100 scale (0 no effect, 100 complete control), read-out: Plant response rating, Barnyardgrass
[15] = visual injury after approximately 10 d, 0 to 100 scale (0 no effect, 100 complete control), read-out: Plant response rating, Blackgrass
[16] = 125 g ai/ha, postemergence, 0 to 100 scale (0 no effect, 100 complete control)
[17] = visual injury after approximately 10 d, 0 to 100 scale (0 no effect, 100 complete control), read-out: Plant response rating, Foxtail, Giant
[18] = visual injury after approximately 10 d, 0 to 100 scale (0 no effect, 100 complete control), read-out: Plant response rating, Pigweed
[19] = visual injury after approximately 10 d, 0 to 100 scale (0 no effect, 100 complete control), read-out: Plant response rating, Ragweed
[20] = visual injury after approximately 10 d, 0 to 100 scale (0 no effect, 100 complete control), read-out: Plant response rating, Ryegrass, Italian
[21] = visual injury after approximately 10 d, 0 to 100 scale (0 no effect, 100 complete control), read-out: Plant response rating, Wheat
[22] = scale of 0 to 100 where 0 is no effect and 100 is complete control
[23] = 0 to 100 scale where 0 is no effect and 100 is complete control

Compound: CSc1ccccc1NC(=O)[C@H]1C(=O)N(C)C[C@@H]1c1ccc(C)c(C)c1 [Compound 733]
- pest or weed control at 125 g/ha [1, 12]: 20%
- pest or weed control at 125 g/ha (Kochia (Kochia scoparia); [13]): 0%
- pest or weed control at 125 g/ha [2, 14]: 90%
- pest or weed control at 125 g/ha [3, 15]: 0%
- Corn plant response rating (crop injury, 0 = no effect, 100 = complete kill) at 125 g/ha (corn (Zea mays); [16]): 0%
- pest or weed control at 125 g/ha [4, 17]: 80%
- pest or weed control at 125 g/ha [5, 18]: 0%
- pest or weed control at 125 g/ha [6, 19]: 0%
- pest or weed control at 125 g/ha [7, 20]: 20%
- plant injury at 125 g/ha [8, 21]: 20%
- pest or weed control at 250 g/ha [9, 22]: 20%
- pest or weed control at 250 g/ha [10, 22]: 60%
- pest or weed control at 250 g/ha (rice (Oryra sativa); [22]): 0%
- pest or weed control at 250 g/ha [11, 22]: 0%

Compound: Cc1ccc([C@H]2CNC(=O)[C@@H]2C(=O)Nc2c(F)cccc2F)cc1C [Compound 1247]
- pest or weed control at 125 g/ha ([1]; visual injury vs untreated controls after approx. 10 d, 0 = no effect, 100 = complete control, read-out: Galium plant response rating (0 to 100 scale)): 0%
- pest or weed control at 500 g/ha ([1]; Postemergence, 500 g ai/ha, visual injury, 0 to 100 scale (0 no effect, 100 complete control), approx. 10 d, read-out: Plant response rating, Galium): 20%
- pest or weed control at 125 g/ha (Kochia (Kochia scoparia); visual injury vs untreated controls after approx. 10 d, 0 = no effect, 100 = complete control, read-out: Kochia plant response rating (0 to 100 scale)): 0%
- pest or weed control at 500 g/ha (Kochia (Kochia scoparia); Postemergence, 500 g ai/ha, visual injury, 0 to 100 scale (0 no effect, 100 complete control), approx. 10 d, read-out: Plant response rating, Kochia): 0%
- pest or weed control at 125 g/ha ([2]; visual injury vs untreated controls after approx. 10 d, 0 = no effect, 100 = complete control, read-out: Barnyardgrass plant response rating (0 to 100 scale)): 40%
- pest or weed control at 500 g/ha ([2]; Postemergence, 500 g ai/ha, visual injury, 0 to 100 scale (0 no effect, 100 complete control), approx. 10 d, read-out: Plant response rating, Barnyardgrass): 70%
- pest or weed control at 125 g/ha ([3]; visual injury vs untreated controls after approx. 10 d, 0 = no effect, 100 = complete control, read-out: Blackgrass plant response rating (0 to 100 scale)): 0%
- pest or weed control at 500 g/ha ([3]; Postemergence, 500 g ai/ha, visual injury, 0 to 100 scale (0 no effect, 100 complete control), approx. 10 d, read-out: Plant response rating, Blackgrass): 0%
- plant injury at 125 g/ha (corn (Zea mays); 125 g ai/ha, postemergence, visual injury vs untreated controls after approx. 10 d, 0 = no effect, 100 = complete control, read-out: Corn plant response rating (0 to 100 scale)): 0%
- Corn plant response rating (crop injury, 0 = no effect, 100 = complete kill) at 500 g/ha (corn (Zea mays); Postemergence, 500 g ai/ha, visual injury, 0 to 100 scale (0 no effect, 100 complete control), approx. 10 d): 0%
- pest or weed control at 125 g/ha ([4]; visual injury vs untreated controls after approx. 10 d, 0 = no effect, 100 = complete control, read-out: Foxtail, Giant plant response rating (0 to 100 scale)): 0%
- pest or weed control at 500 g/ha ([4]; Postemergence, 500 g ai/ha, visual injury, 0 to 100 scale (0 no effect, 100 complete control), approx. 10 d, read-out: Plant response rating, Foxtail, Giant): 30%
- pest or weed control at 125 g/ha ([5]; visual injury vs untreated controls after approx. 10 d, 0 = no effect, 100 = complete control, read-out: Pigweed plant response rating (0 to 100 scale)): 0%
- pest or weed control at 500 g/ha ([5]; Postemergence, 500 g ai/ha, visual injury, 0 to 100 scale (0 no effect, 100 complete control), approx. 10 d, read-out: Plant response rating, Pigweed): 0%
- pest or weed control at 125 g/ha ([6]; visual injury vs untreated controls after approx. 10 d, 0 = no effect, 100 = complete control, read-out: Ragweed plant response rating (0 to 100 scale)): 0%
- pest or weed control at 500 g/ha ([6]; Postemergence, 500 g ai/ha, visual injury, 0 to 100 scale (0 no effect, 100 complete control), approx. 10 d, read-out: Plant response rating, Ragweed): 0%
- pest or weed control at 125 g/ha ([7]; visual injury vs untreated controls after approx. 10 d, 0 = no effect, 100 = complete control, read-out: Ryegrass, Italian plant response rating (0 to 100 scale)): 0%
- pest or weed control at 500 g/ha ([7]; Postemergence, 500 g ai/ha, visual injury, 0 to 100 scale (0 no effect, 100 complete control), approx. 10 d, read-out: Plant response rating, Ryegrass, Italian): 0%
- plant injury at 125 g/ha ([8]; visual injury vs untreated controls after approx. 10 d, 0 = no effect, 100 = complete control, read-out: Wheat plant response rating (0 to 100 scale)): 0%
- plant injury at 500 g/ha ([8]; Postemergence, 500 g ai/ha, visual injury, 0 to 100 scale (0 no effect, 100 complete control), approx. 10 d, read-out: Plant response rating, Wheat): 0%
- pest or weed control at 250 g/ha [9, 23]: 20%
- pest or weed control at 250 g/ha [10, 23]: 55%
- pest or weed control at 250 g/ha (rice (Oryra sativa); [23]): 0%
- pest or weed control at 250 g/ha [11, 23]: 0%

Compound: CN1C[C@H](c2cc(F)cc(F)c2)[C@@H](C(=O)Nc2ccccc2S(C)(=O)=O)C1=O [Compound 739]
- pest or weed control at 125 g/ha [1, 12]: 50%
- pest or weed control at 125 g/ha (Kochia (Kochia scoparia); [13]): 30%
- pest or weed control at 125 g/ha [2, 14]: 90%
- pest or weed control at 125 g/ha [3, 15]: 0%
- Corn plant response rating (crop injury, 0 = no effect, 100 = complete kill) at 125 g/ha (corn (Zea mays); [16]): 20%
- pest or weed control at 125 g/ha [4, 17]: 90%
- pest or weed control at 125 g/ha [5, 18]: 20%
- pest or weed control at 125 g/ha [6, 19]: 30%
- pest or weed control at 125 g/ha [7, 20]: 20%
- plant injury at 125 g/ha [8, 21]: 0%
- pest or weed control at 250 g/ha [9, 22]: 60%
- pest or weed control at 250 g/ha [10, 22]: 100%
- pest or weed control at 250 g/ha (rice (Oryra sativa); [22]): 0%
- pest or weed control at 250 g/ha [11, 22]: 0%
